Test results published in the NIST ThermoML archive (doi:10.1016/j.fluid.2012.09.007).

Experiment: xn = mol fraction of the nth substance listed
Conditions: 101 kPa, Liquid, Vibrating tube method

CC(C)CC(C)(C)C [2,2,4-trimethylpentane] + CCC(C)(C)OC
x2 = 0
Conditions	mass density [kg/m3]
298.15 K	687.68
308.15 K	679.48
318.15 K	671.34

c1ccccc1 [benzene] + CCC(C)(C)OC
x1 = 1
Conditions	mass density [kg/m3]
298.15 K	873.53
308.15 K	862.85
318.15 K	852.18

c1ccccc1 [benzene] + CC(C)CC(C)(C)C
x1 = 1
Conditions	mass density [kg/m3]
298.15 K	873.52
308.15 K	862.84
318.15 K	852.18

CC(C)CC(C)(C)C [2,2,4-trimethylpentane] + c1ccccc1
Conditions	mass density [kg/m3]
298.15 K, x2 = 0	687.69
298.15 K, x2 = 0.06106	693.48
298.15 K, x2 = 0.1418	701.74
298.15 K, x2 = 0.2015	708.37
298.15 K, x2 = 0.2685	716.35
298.15 K, x2 = 0.3382	725.38
298.15 K, x2 = 0.399	733.9
298.15 K, x2 = 0.4639	743.77
298.15 K, x2 = 0.5179	752.66
298.15 K, x2 = 0.5986	767.18
298.15 K, x2 = 0.6562	778.61
298.15 K, x2 = 0.7257	793.77
298.15 K, x2 = 0.7993	811.66
298.15 K, x2 = 0.871	831.31
298.15 K, x2 = 0.9483	855.37
308.15 K, x2 = 0	679.5
308.15 K, x2 = 0.07837	686.91
308.15 K, x2 = 0.139	693.09
308.15 K, x2 = 0.2112	701.03
308.15 K, x2 = 0.2701	707.99
308.15 K, x2 = 0.3244	714.88
308.15 K, x2 = 0.3912	723.99
308.15 K, x2 = 0.4607	734.35
308.15 K, x2 = 0.5319	745.93
308.15 K, x2 = 0.6019	758.53
308.15 K, x2 = 0.6669	771.38
308.15 K, x2 = 0.7335	785.91
308.15 K, x2 = 0.7944	800.56
308.15 K, x2 = 0.8662	819.8
308.15 K, x2 = 0.9302	839.08
318.15 K, x2 = 0	671.34
318.15 K, x2 = 0.07013	677.83
318.15 K, x2 = 0.1336	684.16
318.15 K, x2 = 0.2025	691.56
318.15 K, x2 = 0.272	699.64
318.15 K, x2 = 0.3457	708.99
318.15 K, x2 = 0.4011	716.6
318.15 K, x2 = 0.466	726.21
318.15 K, x2 = 0.535	737.39
318.15 K, x2 = 0.5941	747.85
318.15 K, x2 = 0.6592	760.41
318.15 K, x2 = 0.7319	775.94
318.15 K, x2 = 0.7981	791.66
318.15 K, x2 = 0.8656	809.56
318.15 K, x2 = 0.9321	829.34

CCC(C)(C)OC [2-methoxy-2-methylbutane] + c1ccccc1
Conditions	mass density [kg/m3]
298.15 K, x2 = 0	765.79
298.15 K, x2 = 0.06414	770.46
298.15 K, x2 = 0.1353	775.9
298.15 K, x2 = 0.2019	781.23
298.15 K, x2 = 0.2693	786.88
298.15 K, x2 = 0.3352	792.67
298.15 K, x2 = 0.4021	798.87
298.15 K, x2 = 0.4653	805.02
298.15 K, x2 = 0.5342	812.08
298.15 K, x2 = 0.6022	819.46
298.15 K, x2 = 0.6671	826.93
298.15 K, x2 = 0.7367	835.44
298.15 K, x2 = 0.7973	843.32
298.15 K, x2 = 0.8665	852.89
298.15 K, x2 = 0.9336	862.89
308.15 K, x2 = 0	756.23
308.15 K, x2 = 0.06701	761.09
308.15 K, x2 = 0.1338	766.17
308.15 K, x2 = 0.2009	771.51
308.15 K, x2 = 0.2672	777.02
308.15 K, x2 = 0.3336	782.8
308.15 K, x2 = 0.4024	789.11
308.15 K, x2 = 0.4715	795.77
308.15 K, x2 = 0.5344	802.18
308.15 K, x2 = 0.6008	809.31
308.15 K, x2 = 0.6685	816.98
308.15 K, x2 = 0.7345	824.97
308.15 K, x2 = 0.7995	833.32
308.15 K, x2 = 0.8625	841.93
308.15 K, x2 = 0.9344	852.47
318.15 K, x2 = 0	746.71
318.15 K, x2 = 0.06757	751.58
318.15 K, x2 = 0.1346	756.63
318.15 K, x2 = 0.2014	761.91
318.15 K, x2 = 0.269	767.5
318.15 K, x2 = 0.3371	773.39
318.15 K, x2 = 0.4031	779.4
318.15 K, x2 = 0.4661	785.42
318.15 K, x2 = 0.5339	792.26
318.15 K, x2 = 0.6012	799.41
318.15 K, x2 = 0.6679	806.93
318.15 K, x2 = 0.7346	814.9
318.15 K, x2 = 0.7994	823.13
318.15 K, x2 = 0.8645	831.93
318.15 K, x2 = 0.9333	841.85

CCC(C)(C)OC [2-methoxy-2-methylbutane] + CC(C)CC(C)(C)C
Conditions	mass density [kg/m3]
298.15 K, x1 = 0.06668	691.73
298.15 K, x1 = 0.1334	695.93
298.15 K, x1 = 0.2065	700.7
298.15 K, x1 = 0.2712	705.05
298.15 K, x1 = 0.3376	709.68
298.15 K, x1 = 0.3977	713.99
298.15 K, x1 = 0.4666	719.11
298.15 K, x1 = 0.527	723.75
298.15 K, x1 = 0.5952	729.17
298.15 K, x1 = 0.6668	735.06
298.15 K, x1 = 0.7314	740.58
298.15 K, x1 = 0.7975	746.43
298.15 K, x1 = 0.8616	752.31
298.15 K, x1 = 0.9325	759.06
298.15 K, x1 = 1	765.77
308.15 K, x1 = 0.06672	683.48
308.15 K, x1 = 0.1383	687.9
308.15 K, x1 = 0.2056	692.2
308.15 K, x1 = 0.2684	696.36
308.15 K, x1 = 0.3406	701.28
308.15 K, x1 = 0.401	705.55
308.15 K, x1 = 0.4585	709.75
308.15 K, x1 = 0.5291	715.06
308.15 K, x1 = 0.5953	720.24
308.15 K, x1 = 0.6632	725.74
308.15 K, x1 = 0.7339	731.67
308.15 K, x1 = 0.7946	736.96
308.15 K, x1 = 0.8646	743.27
308.15 K, x1 = 0.9319	749.58
308.15 K, x1 = 1	756.19
318.15 K, x1 = 0.06682	675.24
318.15 K, x1 = 0.1368	679.49
318.15 K, x1 = 0.1974	683.27
318.15 K, x1 = 0.2673	687.79
318.15 K, x1 = 0.3375	692.5
318.15 K, x1 = 0.401	696.91
318.15 K, x1 = 0.4676	701.69
318.15 K, x1 = 0.5324	706.5
318.15 K, x1 = 0.5984	711.56
318.15 K, x1 = 0.6593	716.41
318.15 K, x1 = 0.7309	722.32
318.15 K, x1 = 0.7982	728.08
318.15 K, x1 = 0.8669	734.18
318.15 K, x1 = 0.932	740.18
318.15 K, x1 = 1	746.69
